Where a SMILES comes first, the peptide text is derived from it. [ ]: non-standard residue; d: D form. The star is where a group is joined. Pyrazinecarbonyl = O=C(c1cnccn1)*; Hyp = O=C(O)[C@@H]1C[C@@H](O)CN1; Abu = CC[C@H](N)C(=O)O; Bn = c1ccc(C*)cc1
Legend:
[1] = target: NS3 (Hepatitis C virus, UniProt A3EZJ3); experiment: Binding inhibition of hepatitis C virus NS3.4A protease 2 using p-nitroaniline assay (pNA); set-up: species or system Hepacivirus hominis
[2] = target: T1, Hepatitis C virus serine protease, NS3/NS4A (Hepatitis C virus, UniProt D2K2A8+A3EZI9); experiment: Binding inhibition of hepatitis C virus NS3.4A protease 2 using p-nitroaniline assay (pNA); <0.2 (0.18); format: protein-complex assay, Hepacivirus hominis
[3] = target: T1, Hepatitis C virus serine protease, NS3/NS4A; experiment: Binding inhibition of hepatitis C virus NS3.4A protease 2 using a reverse phase HPLC based assay; format: protein-complex assay, Hepacivirus hominis
[4] = target: T1, Hepatitis C virus serine protease, NS3/NS4A; experiment: Binding inhibition of hepatitis C virus NS3.4A protease 2 using p-nitroaniline assay (pNA); <0.2 (0.10); format: protein-complex assay, Hepacivirus hominis
[5] = system: Huh-7; experiment: Reduction of HCV RNA in 48 hr compound treated Huh 7 cells was determined by quantitative RT-PCR-based […] assay; format: functional; conditions: Homo sapiens, Huh-7, 48 h
[6] = system: Huh-7; experiment: Cytotoxicity of compound was determined by MTS-based cell viability assay in Huh 7 cells; format: functional; conditions: Homo sapiens
[7] = target: T1, Hepatitis C virus serine protease, NS3/NS4A; experiment: Binding inhibition of hepatitis C virus NS3.4A protease 2 using p-nitroaniline assay (pNA); <0.2 (0.15); format: protein-complex assay, Hepacivirus hominis
[8] = target: T1, Hepatitis C virus serine protease, NS3/NS4A; experiment: Binding inhibition of hepatitis C virus NS3.4A protease 2 using a reverse phase HPLC based assay; <0.2 (0.15); format: protein-complex assay, Hepacivirus hominis
[9] = target: T1, Hepatitis C virus serine protease, NS3/NS4A; experiment: Binding inhibition of hepatitis C virus NS3.4A protease 2 was determined; format: protein-complex assay, Hepacivirus hominis
[10] = target: T1, Hepatitis C virus serine protease, NS3/NS4A; experiment: Binding inhibition of hepatitis C virus NS3.4A protease 2 using p-nitroaniline assay (pNA); <0.2 (0.03); format: protein-complex assay, Hepacivirus hominis

NS3, sequence (A3EZJ3 whole entry): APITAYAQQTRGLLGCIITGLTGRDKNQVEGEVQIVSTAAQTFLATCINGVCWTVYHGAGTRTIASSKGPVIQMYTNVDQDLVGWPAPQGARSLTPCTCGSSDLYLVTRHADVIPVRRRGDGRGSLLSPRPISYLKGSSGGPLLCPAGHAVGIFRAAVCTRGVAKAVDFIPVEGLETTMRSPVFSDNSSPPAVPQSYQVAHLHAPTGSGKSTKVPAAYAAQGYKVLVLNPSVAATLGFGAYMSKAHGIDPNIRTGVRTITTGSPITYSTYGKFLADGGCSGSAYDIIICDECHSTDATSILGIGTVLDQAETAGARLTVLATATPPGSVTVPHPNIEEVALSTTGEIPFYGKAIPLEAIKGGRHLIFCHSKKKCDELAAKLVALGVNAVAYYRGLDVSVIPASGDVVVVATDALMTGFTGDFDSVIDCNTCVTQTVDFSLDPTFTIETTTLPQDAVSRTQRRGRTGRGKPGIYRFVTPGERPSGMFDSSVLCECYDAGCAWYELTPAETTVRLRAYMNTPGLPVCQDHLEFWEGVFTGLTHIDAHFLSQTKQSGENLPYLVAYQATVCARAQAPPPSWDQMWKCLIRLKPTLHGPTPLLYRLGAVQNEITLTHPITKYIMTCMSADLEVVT
T1 sequence (D2K2A8 whole entry): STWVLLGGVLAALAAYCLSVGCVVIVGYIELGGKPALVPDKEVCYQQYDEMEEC
T1 sequence (A3EZI9 whole entry): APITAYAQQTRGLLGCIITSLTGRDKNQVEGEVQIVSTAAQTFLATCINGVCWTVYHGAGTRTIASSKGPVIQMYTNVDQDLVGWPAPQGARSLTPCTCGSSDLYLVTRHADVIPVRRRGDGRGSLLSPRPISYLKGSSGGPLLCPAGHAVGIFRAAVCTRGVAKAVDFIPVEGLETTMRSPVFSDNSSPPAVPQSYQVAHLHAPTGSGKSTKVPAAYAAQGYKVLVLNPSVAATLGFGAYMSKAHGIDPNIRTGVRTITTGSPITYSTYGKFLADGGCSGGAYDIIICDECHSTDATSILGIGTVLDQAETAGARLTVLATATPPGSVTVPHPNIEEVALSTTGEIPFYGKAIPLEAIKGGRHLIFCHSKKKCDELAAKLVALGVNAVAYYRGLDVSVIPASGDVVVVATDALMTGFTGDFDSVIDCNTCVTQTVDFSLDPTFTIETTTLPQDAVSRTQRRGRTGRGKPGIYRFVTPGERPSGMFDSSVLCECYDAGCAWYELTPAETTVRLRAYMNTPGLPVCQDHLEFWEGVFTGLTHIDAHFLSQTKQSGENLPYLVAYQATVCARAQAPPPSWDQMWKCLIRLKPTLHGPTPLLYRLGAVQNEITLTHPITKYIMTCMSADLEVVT

| Structure (SMILES) | Ki [1] | IC50 [5] | CC50 [6] | other results |
| --- | --- | --- | --- | --- |
| CCC(NC(=O)[C@@H]1C[C@@H](OCc2ccccc2)CN1C(=O)[C@H](NC(=O)[C@H](NC(=O)c1cnccn1)C(C)C)C(C)C)C(=O)C(F)(F)C(F)(F)F (stereo partly drawn) | 17.5 µM |  |  |  |
| CCCC(NC(=O)[C@@H]1C[C@@H](OC(=O)N2CCc3ccccc3C2)CN1C(=O)[C@H](NC(=O)[C@H](NC(=O)c1cnccn1)C(C)C)C(C)C)C(=O)C(=O)N[C@@H](C)C(=O)c1cccc2ccccc12 (stereo partly drawn) |  |  |  | Ki [2]: < 0.2 µM; IC50 [3]: 0.75 µM |
| CCC(NC(=O)[C@@H]1C[C@@H](OCc2ccccc2)CN1C(=O)[C@H](NC(=O)[C@H](NC(=O)c1cnccn1)C(C)C)C(C)C)C(=O)C(F)(F)F (stereo partly drawn) | > 50 µM |  |  |  |
| CCCC(NC(=O)[C@@H]1C[C@@H](OC(=O)N2CCc3ccccc3C2)CN1C(=O)[C@H](NC(=O)[C@H](NC(=O)c1cnccn1)C(C)C)C(C)C)C(=O)C(=O)N[C@@H](C)c1ccccc1 (stereo partly drawn) |  | > 0.31 µM | > 16 µM | Ki [4]: < 0.2 µM; IC50 [3]: 0.22 µM |
| CCCC(NC(=O)[C@@H]1C[C@@H](OC(=O)N2CCc3ccccc3C2)CN1C(=O)[C@H](NC(=O)[C@H](NC(=O)c1cnccn1)C(C)C)C(C)C)C(=O)C(=O)N(C)CC(=O)O (stereo partly drawn) | 5.23 µM |  |  |  |
| CCCC(NC(=O)[C@@H]1C[C@@H](OC(=O)N2CCc3ccccc3C2)CN1C(=O)[C@H](NC(=O)[C@H](NC(=O)c1cnccn1)C(C)C)C(C)C)C(=O)C(=O)NCC(=O)O (stereo partly drawn) |  | > 10 µM | > 100 µM | Ki [7]: < 0.2 µM; IC50 [8]: 0.037 µM |
| CC[C@H](NC(=O)[C@@H]1C[C@@H](OCc2ccccc2)CN1C(=O)[C@@H](NC(=O)[C@@H](NC(=O)c1cnccn1)C(C)C)C(C)C)C(=O)C(=O)NCc1ccccc1 | 4 µM |  |  |  |
| CC[C@@H](C=O)NC(=O)[C@@H]1CC(OC(=O)C2CCc3ccccc3C2)CN1C(=O)[C@@H](NC(=O)[C@@H](NC(=O)c1cnccn1)C(C)C)C(C)C (stereo partly drawn) |  |  |  | Ki [9]: 0.89 µM |
| CCCC(NC(=O)[C@@H]1C[C@@H](OC(=O)N2CCc3ccccc3C2)CN1C(=O)[C@H](NC(=O)[C@H](NC(=O)c1cnccn1)C(C)C)C(C)C)C(=O)C(=O)NC(CO)C(=O)O (stereo partly drawn) | 0.54 µM |  |  |  |
| CCCC(NC(=O)[C@@H]1C[C@@H](OC(=O)N2CCc3ccccc3C2)CN1C(=O)[C@H](NC(=O)[C@H](NC(=O)c1cnccn1)C(C)C)C(C)C)C(=O)C(=O)NC1CC1 (stereo partly drawn) |  | > 2.3 µM | > 100 µM | Ki [7]: < 0.22 µM; IC50 [3]: 0.42 µM |
| CC[C@H](NC(=O)[C@@H]1C[C@@H](OCc2ccccc2)CN1C(=O)[C@@H](NC(=O)[C@@H](NC(=O)c1cnccn1)C(C)C)C(C)C)C(=O)C(=O)N1CCCC1 | 32 µM |  |  |  |
| CC[C@H](NC(=O)[C@@H]1C[C@@H](OCc2ccccc2)CN1C(=O)[C@@H](NC(=O)[C@@H](NC(=O)c1cnccn1)C(C)C)C(C)C)C(=O)C(=O)c1ccccc1 | 10 µM |  |  |  |
| CCCC(NC(=O)[C@@H]1C[C@@H](OC(=O)N2CCc3ccccc3C2)CN1C(=O)[C@H](NC(=O)[C@H](NC(=O)c1cnccn1)C(C)C)C(C)C)C(=O)C(=O)NC1CCC1 (stereo partly drawn) | 0.8 µM | > 10.2 µM | > 100 µM |  |
| CC[C@H](NC(=O)[C@@H]1C[C@@H](OCc2ccccc2)CN1C(=O)[C@@H](NC(=O)[C@@H](NC(=O)c1cnccn1)C(C)C)C(C)C)C(=O)C(=O)C(C)C | 2.7 µM |  |  |  |
| CCCC(NC(=O)[C@@H]1C[C@@H](OC(=O)N2CCc3ccccc3C2)CN1C(=O)[C@H](NC(=O)[C@H](NC(=O)c1cnccn1)C(C)C)C(C)C)C(=O)C(=O)NCC#N (stereo partly drawn) | 1.12 µM |  |  |  |
| CC[C@H](NC(=O)[C@@H]1C[C@@H](OCc2ccccc2)CN1C(=O)[C@@H](NC(=O)[C@@H](NC(=O)c1cnccn1)C(C)C)C(C)C)C(=O)C(C)=O | 50 µM |  |  |  |
| CC[C@H](NC(=O)[C@@H]1C[C@@H](OCc2ccccc2)CN1C(=O)[C@@H](NC(=O)[C@@H](NC(=O)c1cnccn1)C(C)C)C(C)C)C(=O)C(=O)N[C@H](C)c1ccccc1 | 17 µM |  |  |  |
| CCC(NC(=O)[C@@H]1C[C@@H](OCc2ccccc2)CN1C(=O)[C@H](NC(=O)[C@H](NC(=O)c1cnccn1)C(C)C)C(C)C)C(=O)CCl (stereo partly drawn) | > 50 µM |  |  |  |
| CCCC(NC(=O)[C@@H]1C[C@@H](OC(=O)N2CCc3ccccc3C2)CN1C(=O)[C@H](NC(=O)[C@H](NC(=O)c1cnccn1)C(C)C)C(C)C)C(=O)C(=O)NCc1ccco1 (stereo partly drawn) | 4.72 µM |  |  |  |

| Structure (SMILES) | Ki [1] | IC50 [5] | CC50 [6] | other results |
| --- | --- | --- | --- | --- |
| CCCC(NC(=O)[C@@H]1C[C@@H](OC(=O)N2CCc3ccccc3C2)CN1C(=O)[C@H](NC(=O)[C@H](NC(=O)c1cnccn1)C(C)C)C(C)C)C(=O)C(=O)NC(C)C (stereo partly drawn) | 0.52 µM | > 10 µM | > 100 µM |  |
| CCCC(NC(=O)[C@@H]1C[C@@H](OC(=O)N2CCc3ccccc3C2)CN1C(=O)[C@H](NC(=O)[C@H](NC(=O)c1cnccn1)C(C)C)C(C)C)C(=O)C(=O)NCCc1ccccc1 (stereo partly drawn) | 0.21 µM | > 10 µM | > 100 µM | IC50 [3]: 0.52 µM |
| CCCC(NC(=O)[C@@H]1C[C@@H](OC(=O)N2CCc3ccccc3C2)CN1C(=O)[C@H](NC(=O)[C@H](NC(=O)c1cnccn1)C(C)C)C(C)C)C(=O)C(=O)NCc1ccccc1 (stereo partly drawn) |  | > 3.2 µM | > 30 µM | Ki [7]: < 0.2 µM; IC50 [3]: 0.22 µM |
| CCCC(NC(=O)[C@@H]1C[C@@H](OC(=O)N2CCc3ccccc3C2)CN1C(=O)[C@H](NC(=O)[C@H](NC(=O)c1cnccn1)C(C)C)C(C)C)C(=O)C(=O)NCC(=N)N (stereo partly drawn) | 5.76 µM |  |  |  |
| CC[C@H](NC(=O)[C@@H]1C[C@@H](OCc2ccccc2)CN1C(=O)[C@@H](NC(=O)[C@@H](NC(=O)c1cnccn1)C(C)C)C(C)C)C(=O)c1nnc(-c2ccccc2)o1 | 35 µM |  |  |  |
| CC[C@H](NC(=O)[C@@H]1C[C@@H](OCc2ccccc2)CN1C(=O)[C@@H](NC(=O)[C@@H](NC(=O)c1cnccn1)C(C)C)C(C)C)C(=O)C(=O)N[C@@H](C)c1ccccc1 [listing 1 of 2 here] | 0.92 µM | > 4.8 µM |  |  |
| CC[C@H](NC(=O)[C@@H]1C[C@@H](OCc2ccccc2)CN1C(=O)[C@@H](NC(=O)[C@@H](NC(=O)c1cnccn1)C(C)C)C(C)C)C(=O)C(=O)N[C@@H](C)c1ccccc1 [listing 2 of 2 here] |  |  | > 100 µM |  |
| CCCC(NC(=O)[C@@H]1C[C@@H](OC(=O)N2CCc3ccccc3C2)CN1C(=O)[C@H](NC(=O)[C@H](NC(=O)c1cnccn1)C(C)C)C(C)C)C(=O)C(=O)NC(C)C(=O)O (stereo partly drawn) |  |  |  | Ki [2]: 0.2 µM; IC50 [3]: 0.13 µM |
| CCCC(NC(=O)[C@@H]1C[C@@H](OC(=O)N2CCc3ccccc3C2)CN1C(=O)[C@H](NC(=O)[C@H](NC(=O)c1cnccn1)C(C)C)C(C)C)C(=O)C(=O)NC(C)(C)C (stereo partly drawn) | 6.9 µM |  |  |  |
| CCCC(NC(=O)[C@@H]1C[C@@H](OC(=O)N2CCc3ccccc3C2)CN1C(=O)[C@H](NC(=O)[C@H](NC(=O)c1cnccn1)C(C)C)C(C)C)C(=O)C(=O)N(CC(=O)O)c1ccccc1 (stereo partly drawn) | 1.63 µM |  |  |  |
| CCCC(NC(=O)[C@@H]1C[C@@H](OC(=O)N2CCc3ccccc3C2)CN1C(=O)[C@H](NC(=O)[C@H](NC(=O)c1cnccn1)C(C)C)C(C)C)C(=O)C(=O)NCc1nnn[nH]1 (stereo partly drawn) | 0.29 µM | > 10 µM | > 100 µM |  |
| CC[C@H](NC(=O)[C@@H]1C[C@@H](OCc2ccccc2)CN1C(=O)[C@@H](NC(=O)[C@@H](NC(=O)c1cnccn1)C(C)C)C(C)C)C(=O)O (Pyrazinecarbonyl-VV[Hyp](Bn)[Abu]-OH) | > 50 µM |  |  |  |
| CC[C@@H](C=O)NC(=O)[C@@H]1C[C@@H](OCc2ccccc2)CN1C(=O)[C@@H](NC(=O)[C@@H](NC(=O)c1cnccn1)C(C)C)C(C)C (Pyrazinecarbonyl-VV[Hyp](Bn)[Abu]-aldehyde) | 16 µM |  |  |  |
| CCOC(=O)C(F)(F)C(=O)C(CC)NC(=O)C1CC(OCc2ccccc2)CN1C(=O)[C@H](NC(=O)[C@H](NC(=O)c1cnccn1)C(C)C)C(C)C (single isomer, unassigned) | > 50 µM |  |  |  |
| CCCC(NC(=O)[C@@H]1CC(OC(=O)N2CCc3ccccc3C2)CN1C(=O)[C@H](NC(=O)[C@H](NC(=O)c1cnccn1)C(C)C)C(C)C)C(=O)C(=O)c1ccccc1 (single isomer, unassigned) |  | > 10 µM | > 100 µM | Ki [10]: < 0.2 µM; IC50 [3]: 0.026 µM |
| CCCC(NC(=O)[C@@H]1CC(OC(=O)N2CCc3ccccc3C2)CN1C(=O)[C@H](NC(=O)[C@H](NC(=O)c1cnccn1)C(C)C)C(C)C)C(=O)C(=O)N1C[C@@H]1c1ccccc1 (single isomer, unassigned) | 1.6 µM |  |  |  |
| CCCC(NC(=O)[C@@H]1CC(OC(=O)N2CCc3ccccc3C2)CN1C(=O)[C@H](NC(=O)[C@H](NC(=O)c1cnccn1)C(C)C)C(C)C)C(=O)C(=O)Cc1ccccc1 (single isomer, unassigned) | 0.43 µM | > 10 µM | > 100 µM |  |
| CCCC(NC(=O)[C@@H]1CC(OC(=O)N2CCc3ccccc3C2)CN1C(=O)[C@H](NC(=O)[C@H](NC(=O)c1cnccn1)C(C)C)C(C)C)C(=O)C(=O)N1CCC1 (single isomer, unassigned) | 0.97 µM | > 10.3 µM | > 100 µM |  |
